{"source": "patent US9988371B2", "about": "“Benzimidazole analogues and related methods” (The Arizona Board of Regents, on Behalf of the University …, priority 2014, dated 2018)", "key": {"RET wild type": {"target": "T1, RET wild type (Homo sapiens, UniProt P07949)", "T1 construct": "purchased Invitrogen", "T1 sequence (P07949 724-1016 limits assumed)": "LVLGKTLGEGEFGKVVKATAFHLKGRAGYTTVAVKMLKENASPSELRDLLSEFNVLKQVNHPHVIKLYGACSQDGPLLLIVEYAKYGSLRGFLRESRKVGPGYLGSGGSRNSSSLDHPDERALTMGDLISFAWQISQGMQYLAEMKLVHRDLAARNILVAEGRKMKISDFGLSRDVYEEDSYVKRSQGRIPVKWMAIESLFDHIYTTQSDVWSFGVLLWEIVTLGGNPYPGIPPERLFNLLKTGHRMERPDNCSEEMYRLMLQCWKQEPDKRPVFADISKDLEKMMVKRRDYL", "assay": "RET biochemical assay (EZ Reader mobility shift)", "conditions": "30 min pre-incubation, 200 μM ATP, exact potency beyond measurable limit", "experimental": "Suitable screening assays for RET and VEGFR2 small molecule kinase inhibitors (from a kinase-directed fragment (KDF) library) were established. The RET kinase assay utilizes an EZ Reader Electrophoresis Mobility Chip Instrument (Caliper Life Science). In the assay, 2 nM recombinant RET enzyme (Invitrogen) is pre-incubated with a small molecule inhibitor or control buffer for 30 min to allow the Type-II kinase inhibitor to trap the DFG-out conformation to which the inhibitors bind. This class of inhibitors is indirectly competitive with ATP, and slow binding kinetics (low kd) allow the inhibitors to appear non-competitive and pseudo-irreversible in nature. Because of the non-competitive nature of these inhibitors, a more biologically relevant concentration of ATP substrate (200 μM) was incorporated in this assay. After 30 min of pre-incubation, a substrate mix containing […], 20 mM MgCl2 and 1.5 μM fluorescently labeled RET substrate peptide (Caliper LS, peptide 22; Perkin Elmer, USA) was added. The conversion level of the RET substrate peptide was then determined utilizing the EZ Reader instrument. […]\nThe RET kinase assay utilizes a microfluidics based instrument for direct kinase activity readout (Caliper Life Science). […] The conversion level of the RET substrate peptide was determined utilizing the EZ Reader instrument. […]"}, "VEGFR2": {"target": "VEGFR2 (Homo sapiens, UniProt P35968)", "sequence (P35968 834-1162 limits assumed)": "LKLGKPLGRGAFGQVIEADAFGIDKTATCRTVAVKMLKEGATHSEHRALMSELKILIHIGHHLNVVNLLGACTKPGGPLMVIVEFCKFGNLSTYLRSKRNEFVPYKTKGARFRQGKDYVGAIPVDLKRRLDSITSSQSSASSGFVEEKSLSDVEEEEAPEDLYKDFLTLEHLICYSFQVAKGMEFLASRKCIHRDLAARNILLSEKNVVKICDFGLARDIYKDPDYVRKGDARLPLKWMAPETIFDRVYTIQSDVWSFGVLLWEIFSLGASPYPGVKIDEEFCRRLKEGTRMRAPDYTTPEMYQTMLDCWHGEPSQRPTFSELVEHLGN", "assay": "VEGFR2 biochemical assay", "conditions": "exact potency beyond measurable limit", "experimental": "Suitable screening assays for RET and VEGFR2 small molecule kinase inhibitors (from a kinase-directed fragment (KDF) library) were established. The RET kinase assay utilizes an EZ Reader Electrophoresis Mobility Chip Instrument (Caliper Life Science). In the assay, 2 nM recombinant RET enzyme (Invitrogen) is pre-incubated with a small molecule inhibitor or control buffer for 30 min to allow the Type-II kinase inhibitor to trap the DFG-out conformation to which the inhibitors bind. This class of inhibitors is indirectly competitive with ATP, and slow binding kinetics (low kd) allow the inhibitors to appear non-competitive and pseudo-irreversible in nature. Because of the non-competitive nature of these inhibitors, a more biologically relevant concentration of ATP substrate (200 μM) was incorporated in this assay. After 30 min of pre-incubation, a substrate mix containing […], 20 mM MgCl2 and 1.5 μM fluorescently labeled RET substrate peptide (Caliper LS, peptide 22; Perkin Elmer, USA) was added. The conversion level of the RET substrate peptide was then determined utilizing the EZ Reader instrument. Similarly, VEGFR2 and RET/V804M kinase assays have also been established using the same peptide substrate.\nThe VEGFR-2 assay was identical to the RET assay except that 1-2 nM recombinant VEGFR-2 was used instead of RET."}, "[1]": {"test_system": "RET/C634Y transformed NIH3T3 fibroblasts", "assay": "NIH3T3 RET/C634Y tumors in nude mice", "type": "in vivo, BALB/c nu/nu mice", "conditions": "1.0, 3.0 or 10 mg/kg daily, oral gavage", "description": "(§1) FIG. 8: Anti-tumorigenic activity of Pz-1 in nude mice implanted with RET/C634Y or HRAS(G12V) transformed NIH3T3 fibroblasts. […] Average tumor volume (±SD: standard deviations) is reported. NIH3T3 RET/C634Y (200,000 cells) or NIH3T3 HRAS/G12V (50,000 cells) were inoculated subcutaneously into dorsal portion (both sides) of 6-week-old female BALB/c nu/nu mice (n. 31 mice/cell line) (Jackson Laboratories, Bar Harbor, Me.). After 4 days, before tumors had appeared, animals were randomly assigned to receive Pz-1 (1.0, 3.0 or 10 mg/kg daily) (23 mice/cell line: 8 mice/group for 1.0 and 3.0 mg/kg daily doses and 7 mice for 10 dose mg/kg daily) or vehicle control (8 mice) by oral gavage. Tumor diameters were measured with calipers every 1-2 days. Tumor volumes (V) were calculated by the rotational ellipsoid formula and reported as average volumes±standard deviations. […]\n(§2) TT cells (7.5×10^6/mouse) were inoculated subcutaneously into dorsal portions (both sides) of 39 SCID mice (Jackson Laboratories, Bar Harbor, Me.). […] Tumor diameters were measured with callipers every week. Tumor volumes (V) were calculated by the rotational ellipsoid formula: V=A×B^2/2 (A=axial diameter; B=rotational diameter) and reported as average volumes±standard deviations. […] Anti-tumorigenic activity of Pz-1 was also assessed in nude mice implanted with RET/C634Y or HRAS(G12V) transformed NIH3T3 fibroblasts. […]"}, "[2]": {"test_system": "HRAS(G12V) transformed NIH3T3 fibroblasts", "assay": "NIH3T3 HRAS(G12V) tumors in nude mice", "type": "in vivo, BALB/c nu/nu mice", "conditions": "1.0, 3.0 or 10 mg/kg daily, oral gavage", "description": "as §1, §2"}}}
{"smiles": "Cn1cc(-c2ccc3c(c2)ncn3-c2ccc(CC(=O)Nc3cc(C(C)(C)C)on3)cc2)cn1", "note": "[Pz-1, N-(5-(tert-butyl)isoxazol-3-yl)-2-(4-(5-(1-methyl-1H-pyrazol-4-yl)-1H-benzo[d]imidazol-1-yl)phenyl)acetamide]", "values": [{"measurement": "IC50", "setting": "RET wild type", "value": "< 1", "unit": "nM"}, {"measurement": "IC50", "setting": "VEGFR2", "value": "< 1", "unit": "nM"}, {"measurement": "formation of tumors induced by RET cells", "setting": "[1]", "value": "totally prevented formation of tumors"}, {"measurement": "formation of tumors driven by the HRAS oncogene", "setting": "[2]", "value": "only reduced, but did not abrogate"}]}
